Measured values: ChEMBL document CHEMBL3885861, “Open TG-GATES”

Organism: Rattus norvegicus
Assay: Open TG-GATES - Regimen: Single
Assay type: toxicity, organism-based, Sprague-Dawley
Design: regimen Single, gender Male, age 6 weeks
Settings: in vivo, po, route gavage; for Bas / Eos / Ht / Lym / MCH / Mono / Neu / RBC / Ret: tissue Blood; for KIDNEY_L / KIDNEY_R / KIDNEY_TOTAL: tissue Kidney; for LIVER: tissue Liver; for ALP / ALT / AST / CRE / Ca / DBIL / IP / K / LDH / Na / PL / RALB / TBIL / TC / TG / TP / gamma-GTP: tissue Plasma
[1] = 600 mg/kg, 3 h, dose level Middle
[2] = 600 mg/kg, 6 h, dose level Middle
[3] = 600 mg/kg, 9 h, dose level Middle
[4] = 600 mg/kg, 24 h, dose level Middle
[5] = 2000 mg/kg, 3 h, dose level High
[6] = 2000 mg/kg, 6 h, dose level High
[7] = 2000 mg/kg, 9 h, dose level High
[8] = 2000 mg/kg, 24 h, dose level High

`COc1cc2ncnc(Nc3ccc(F)c(Cl)c3)c2cc1OCCCN1CCOCC1` [GEFITINIB] showed a Bas [1] of 0%, an Eos [1] of 0.6% and a Ht [1] of 37%. It also gave a Lym [1] of 75%, an MCH [1] of 21.1 pg and a Mono [1] of 2.4%. The Neu [1] was 21%, the RBC [1] was 588 x10_4/ul and the Ret [1] was 9.3%. For the same compound, the KIDNEY_L [1] was 1 g, the KIDNEY_R [1] was 1 g and the KIDNEY_TOTAL [1] was 1.9 g. It also gave an LIVER [1] of 9.7 g, an ALP [1] of 1687 IU/L and an ALT [1] of 58.6 IU/L. It also gave an AST [1] of 80.8 IU/L, a CRE [1] of 0.1 mg/dL and a Ca [1] of 9.7 mg/dL. The DBIL [1] was 0.016 mg/dL, the IP [1] was 8.6 mg/dL and the K [1] was 3.9 meq/L. It also gave an LDH [1] of 191.4 IU/L, a Na [1] of 141.8 meq/L and a PL [1] of 141 mg/dL. It also gave an RALB [1] of 3.9 g/dL, a TBIL [1] of 0.074 mg/dL and a TC [1] of 87.2 mg/dL. The TG [1] was 49.7 mg/dL, the TP [1] was 5.4 g/dL and the gamma-GTP [1] was 1 IU/L. It also gave a TERMINAL_BW [2] of 210.3 g, a Bas [2] of 0% and an Eos [2] of 0.6%. It also gave a Ht [2] of 36.6%, a Lym [2] of 80.2% and an MCH [2] of 21.1 pg. It also gave a Mono [2] of 2.6%, a Neu [2] of 15.6% and an RBC [2] of 582 x10_4/ul. For the same compound, the Ret [2] was 8.9%, the KIDNEY_L [2] was 0.9 g and the KIDNEY_R [2] was 0.9 g. For the same compound, the KIDNEY_TOTAL [2] was 1.9 g, the LIVER [2] was 9.1 g and the ALP [2] was 1267.2 IU/L. The ALT [2] was 59.4 IU/L, the AST [2] was 82 IU/L and the CRE [2] was 0.1 mg/dL. It also gave a Ca [2] of 9.8 mg/dL, a DBIL [2] of 0.016 mg/dL and an IP [2] of 8.8 mg/dL. For the same compound, the K [2] was 4 meq/L, the LDH [2] was 200.4 IU/L and the Na [2] was 141.3 meq/L. It also gave a PL [2] of 152.8 mg/dL, an RALB [2] of 3.9 g/dL and a TBIL [2] of 0.078 mg/dL. It also gave a TC [2] of 96 mg/dL, a TG [2] of 42.8 mg/dL and a TP [2] of 5.4 g/dL. It also gave a gamma-GTP [2] of 1 IU/L, a TERMINAL_BW [3] of 212.8 g and a Bas [3] of 0%. For the same compound, the Eos [3] was 0.8%, the Ht [3] was 37% and the Lym [3] was 77.6%. The MCH [3] was 21.1 pg, the Mono [3] was 3% and the Neu [3] was 18%. The RBC [3] was 587 x10_4/ul, the Ret [3] was 9.2% and the KIDNEY_L [3] was 0.9 g. For the same compound, the KIDNEY_R [3] was 1 g, the KIDNEY_TOTAL [3] was 1.9 g and the LIVER [3] was 8.9 g. For the same compound, the ALP [3] was 1338.6 IU/L, the ALT [3] was 51 IU/L and the AST [3] was 71.2 IU/L. The CRE [3] was 0.2 mg/dL, the Ca [3] was 9.9 mg/dL and the DBIL [3] was 0.016 mg/dL. It also gave an IP [3] of 9.1 mg/dL, a K [3] of 4.2 meq/L and an LDH [3] of 160.6 IU/L. The Na [3] was 143.1 meq/L, the PL [3] was 153 mg/dL and the RALB [3] was 3.8 g/dL. The TBIL [3] was 0.076 mg/dL, the TC [3] was 96 mg/dL and the TG [3] was 46.7 mg/dL. For the same compound, the TP [3] was 5.4 g/dL, the gamma-GTP [3] was 0.9 IU/L and the TERMINAL_BW [4] was 211.6 g. The Bas [4] was 0%, the Eos [4] was 0.8% and the Ht [4] was 40%. It also gave a Lym [4] of 66.2%, an MCH [4] of 20.7 pg and a Mono [4] of 3.6%. It also gave a Neu [4] of 29%, an RBC [4] of 625.6 x10_4/ul and a Ret [4] of 7.6%. For the same compound, the KIDNEY_L [4] was 0.9 g, the KIDNEY_R [4] was 1 g and the KIDNEY_TOTAL [4] was 1.9 g. For the same compound, the LIVER [4] was 8.9 g, the ALP [4] was 1287.2 IU/L and the ALT [4] was 42 IU/L. For the same compound, the AST [4] was 73.8 IU/L, the CRE [4] was 0.2 mg/dL and the DBIL [4] was 0.008 mg/dL. The IP [4] was 8.9 mg/dL, the K [4] was 4.3 meq/L and the LDH [4] was 178.6 IU/L. The Na [4] was 142.8 meq/L, the PL [4] was 186.2 mg/dL and the RALB [4] was 4 g/dL. For the same compound, the TBIL [4] was 0.058 mg/dL, the TC [4] was 126.4 mg/dL and the TG [4] was 65 mg/dL. It also gave a TP [4] of 5.5 g/dL, a gamma-GTP [4] of 1.2 IU/L and a TERMINAL_BW [5] of 214.3 g. The Bas [5] was 0%, the Eos [5] was 0.6% and the Ht [5] was 37.2%. It also gave a Lym [5] of 68%, an MCH [5] of 21.3 pg and a Mono [5] of 3%. For the same compound, the Neu [5] was 27.6%, the RBC [5] was 591 x10_4/ul and the Ret [5] was 9.4%. For the same compound, the KIDNEY_L [5] was 0.9 g, the KIDNEY_R [5] was 0.9 g and the KIDNEY_TOTAL [5] was 1.8 g. For the same compound, the LIVER [5] was 9.4 g, the ALP [5] was 1590.6 IU/L and the ALT [5] was 71 IU/L. The AST [5] was 87.4 IU/L, the CRE [5] was 0.1 mg/dL and the Ca [5] was 9.9 mg/dL. It also gave a DBIL [5] of 0.012 mg/dL, an IP [5] of 9.1 mg/dL and a K [5] of 3.9 meq/L. The LDH [5] was 236 IU/L, the Na [5] was 141.9 meq/L and the PL [5] was 145.4 mg/dL. For the same compound, the RALB [5] was 3.9 g/dL, the TBIL [5] was 0.072 mg/dL and the TC [5] was 91.2 mg/dL. The TG [5] was 56.5 mg/dL, the TP [5] was 5.4 g/dL and the gamma-GTP [5] was 0.9 IU/L. The TERMINAL_BW [6] was 213.7 g, the Bas [6] was 0% and the Eos [6] was 0.8%. The Ht [6] was 37.3%, the Lym [6] was 76.4% and the MCH [6] was 21.3 pg. For the same compound, the Mono [6] was 3.2%, the RBC [6] was 589.2 x10_4/ul and the Ret [6] was 9%. The KIDNEY_L [6] was 0.9 g, the KIDNEY_R [6] was 1 g and the KIDNEY_TOTAL [6] was 1.9 g. It also gave an LIVER [6] of 9.1 g, an ALP [6] of 1266.2 IU/L and an ALT [6] of 56.2 IU/L. The AST [6] was 78.6 IU/L, the CRE [6] was 0.2 mg/dL and the Ca [6] was 9.6 mg/dL. For the same compound, the DBIL [6] was 0.024 mg/dL, the IP [6] was 9.1 mg/dL and the K [6] was 3.9 meq/L. The LDH [6] was 184.6 IU/L, the Na [6] was 140.7 meq/L and the PL [6] was 150.8 mg/dL. For the same compound, the RALB [6] was 3.8 g/dL, the TBIL [6] was 0.092 mg/dL and the TC [6] was 99.6 mg/dL. For the same compound, the TG [6] was 30 mg/dL, the TP [6] was 5.4 g/dL and the gamma-GTP [6] was 0.9 IU/L. The TERMINAL_BW [7] was 212.3 g, the Bas [7] was 0% and the Eos [7] was 0.2%. The Ht [7] was 37.4%, the Lym [7] was 76.2% and the MCH [7] was 21.1 pg. It also gave a Mono [7] of 2.4%, a Neu [7] of 20.4% and an RBC [7] of 592.6 x10_4/ul. For the same compound, the Ret [7] was 9.3%, the KIDNEY_L [7] was 0.9 g and the KIDNEY_R [7] was 1 g. It also gave a KIDNEY_TOTAL [7] of 1.9 g, an LIVER [7] of 8.6 g and an ALP [7] of 1162 IU/L. It also gave an ALT [7] of 56.4 IU/L, an AST [7] of 77.4 IU/L and a CRE [7] of 0.1 mg/dL. For the same compound, the Ca [7] was 9.6 mg/dL, the DBIL [7] was 0.028 mg/dL and the IP [7] was 8.7 mg/dL. It also gave a K [7] of 3.8 meq/L, an LDH [7] of 210.6 IU/L and a Na [7] of 142.6 meq/L. It also gave a PL [7] of 148.2 mg/dL, an RALB [7] of 3.8 g/dL and a TBIL [7] of 0.1 mg/dL. For the same compound, the TC [7] was 98 mg/dL, the TG [7] was 29 mg/dL and the TP [7] was 5.4 g/dL. It also gave a gamma-GTP [7] of 0.9 IU/L, a TERMINAL_BW [8] of 204 g and a Bas [8] of 0%. It also gave an Eos [8] of 0.5%, a Ht [8] of 40.5% and a Lym [8] of 59.8%. The MCH [8] was 21 pg, the Mono [8] was 3.5% and the Neu [8] was 35.8%. It also gave an RBC [8] of 632 x10_4/ul, a Ret [8] of 8.1% and a KIDNEY_L [8] of 0.9 g. For the same compound, the KIDNEY_R [8] was 0.9 g, the KIDNEY_TOTAL [8] was 1.9 g and the LIVER [8] was 8.6 g. The ALP [8] was 1061.5 IU/L, the ALT [8] was 76.8 IU/L and the AST [8] was 126 IU/L. It also gave a CRE [8] of 0.2 mg/dL, a DBIL [8] of 0.03 mg/dL and an IP [8] of 8.4 mg/dL. It also gave a K [8] of 3.5 meq/L, an LDH [8] of 272 IU/L and a Na [8] of 143.2 meq/L. For the same compound, the PL [8] was 144.8 mg/dL, the RALB [8] was 3.9 g/dL and the TBIL [8] was 0.1 mg/dL. The TC [8] was 111.2 mg/dL, the TG [8] was 39.6 mg/dL and the TP [8] was 5.4 g/dL. It also gave a gamma-GTP [8] of 1.4 IU/L.
